Common to all, as to assay: area under dose-response curve (cell viability) (AUC (arbitrary, % viability x log concentration)); higher = less sensitive (more viable)
Settings in all cases: 4 days

For experiment [1], the system named is PL-21. In short, it runs like this: (§1)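 Fourteen leukemia cell lines were plated on extracellular-matrix-coated 384-well plates. Drugs were added robotically the next day at eight concentrations spanning 4–5 logs within 10^–12–10^–4 M, tailored per drug, in duplicate. Viability was read with CellTiter-Glo after 4 days. The value is the area under a four-parameter sigmoid fitted to the duplicate-averaged dose-response.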

The test system of experiment [2] is HL60. In short, it runs like this:
as §1

Experiment [3] has as its system MOLM/16. The procedure, abridged:
as §1

In experiment [4] the test system is SKM1. The procedure, abridged:
as §1

The subject of experiment [5] is THP-1. The procedure, abridged: as §1
Experiment [6] deals with MOLM/13. The procedure, abridged: as §1
Experiment [7] relates to U937. In short, it runs like this:
as §1

Experiment [8] relates to MV4.11. In short, it runs like this:
as §1

For experiment [9], the system named is OCI-AML2. The procedure, abridged: as §1
Experiment [10] relates to KG1. The procedure, abridged:
as §1

For the compound `CO[C@H]1C[C@@H]2CC[C@@H](C)[C@@](O)(O2)C(=O)C(=O)N2CCCC[C@H]2C(=O)O[C@H]([C@H](C)C[C@@H]2CC[C@@H](O)[C@H](OC)C2)CC(=O)[C@H](C)/C=C(\C)[C@@H](O)[C@@H](OC)C(=O)[C@H](C)C[C@H](C)/C=C/C=C/C=C/1C` [Rapamycin], the “area under dose-response curve” value in experiment [1] worked out at 419; in experiment [2], 544; in experiment [3], 380; in experiment [4] it was 434; in [5] it was 527; in experiment [6] it was 439. Moreover, the “area under dose-response curve” value in [7] was 296; in experiment [8] it was 367; in experiment [9] it was 483; in experiment [10], 405.
Consider `CN1CCC(CNc2ccc3ncc(-c4cccc(OC(F)(F)F)c4)n3n2)CC1` [SGI-1776], for which the “area under dose-response curve” value was found to be 562 in experiment [1]; 686 in experiment [2]; 452 in experiment [3]; 564 in experiment [4]; 678 in experiment [5]; 349 in experiment [6]. Also, the “area under dose-response curve” value in experiment [7] amounted to 615; in experiment [8] it was 335; in experiment [9], 557; in experiment [10] it was 585.
For `COc1cc(Nc2c(C#N)cnc3cc(OCCCN4CCN(C)CC4)c(OC)cc23)c(Cl)cc1Cl` [SKI-606], the “area under dose-response curve” value in [1] is 530; in experiment [2], 715; in experiment [3], 452; in experiment [4] it was 539; in [5] it was 672; in [6], 550. Moreover, the “area under dose-response curve” value in experiment [7] was found to be 590; in experiment [8] it was 545; in experiment [9], 548; in experiment [10], 559.
For `CC(C)(C)c1cnc(CSc2cnc(NC(=O)C3CCNCC3)s2)o1` [SNS-032], the “area under dose-response curve” value amounted to 396 in experiment [1]; 555 in experiment [2]; 474 in experiment [3]; 430 in experiment [4]; 527 in experiment [5]; 425 in [6]. Besides, the “area under dose-response curve” value in experiment [7] turned out to be 469; in experiment [8] it was 444; in [9], 395; in experiment [10], 619.
Take `CNC(=O)c1cc(Oc2ccc(NC(=O)Nc3ccc(Cl)c(C(F)(F)F)c3)cc2)ccn1` [Sorafenib]: the “area under dose-response curve” value in experiment [1] was determined as 586; in experiment [2], 707; in [3] it was 537; in experiment [4], 644; in experiment [5], 579; in experiment [6], 311. Also, the “area under dose-response curve” value was 588 in [7], 250 in experiment [8], 603 in [9] and 651 in [10].
For `CN[C@@H]1C[C@H]2O[C@@](C)([C@@H]1OC)n1c3ccccc3c3c4c(c5c6ccccc6n2c5c31)C(=O)NC4` [Staurosporine], the “area under dose-response curve” value in experiment [1] was determined as 265; in experiment [2], 525; in [3] it was 291; in experiment [4], 273; in [5], 425; in [6], 162. For the same compound, the “area under dose-response curve” value in experiment [7] was 344; in experiment [8] it was 121; in [9], 170; in experiment [10] it was 379.
`CCN(CC)CCNC(=O)c1c(C)[nH]c(/C=C2\C(=O)Nc3ccc(F)cc32)c1C` [Sunitinib]: the “area under dose-response curve” value amounted to 617 in [1]; 707 in experiment [2]; 493 in experiment [3]; 635 in experiment [4]; 654 in experiment [5]; 299 in experiment [6]. Besides, the “area under dose-response curve” value is 694 in [7], 301 in [8], 577 in experiment [9] and 581 in experiment [10].
In the case of `Cc1cc(C(C)Nc2ccccc2)c2nc(N3CCOCC3)cc(=O)n2c1` (stereo not given) [TGX-221], the “area under dose-response curve” value in experiment [1] worked out at 630; in experiment [2], 726; in [3], 590; in experiment [4], 638; in experiment [5], 717; in [6] it was 675. Further, the “area under dose-response curve” value in experiment [7] turned out to be 645; in experiment [8] it was 633; in experiment [9], 624; in experiment [10], 694.
As for `CN1CCN(c2ccc3nc(-c4c(N)c5c(F)cccc5[nH]c4=O)[nH]c3c2)CC1` [TKI258], the “area under dose-response curve” value in experiment [1] worked out at 588; in experiment [2], 666; in experiment [3], 472; in experiment [4], 544; in [5], 634; in experiment [6], 323. Further, the “area under dose-response curve” value was found to be 588 in experiment [7], 313 in [8], 546 in experiment [9] and 456 in experiment [10].
For `NC(=O)Nc1sc(-c2ccc(F)cc2)cc1C(N)=O` [TPCA-1], the “area under dose-response curve” value in experiment [1] was found to be 585; in experiment [2], 669; in experiment [3], 481; in [4] it was 638; in experiment [5], 678; in [6], 626. Moreover, the “area under dose-response curve” value was 598 in [7], 609 in experiment [8], 619 in experiment [9] and 547 in [10].
`CC1(C)CCC(C)(C)c2cc(NC(=O)c3ccc(C(=O)O)cc3)ccc21` [Tamibarotene]: the “area under dose-response curve” value in experiment [1] was found to be 542; in experiment [2] it was 603; in experiment [3] it was 558; in [4], 412; in experiment [5], 562; in experiment [6] it was 442. For the same compound, the “area under dose-response curve” value is 524 in experiment [7], 328 in [8], 457 in [9] and 660 in experiment [10].
With `CC/C(=C(\c1ccccc1)c1ccc(OCCN(C)C)cc1)c1ccccc1` [Tamoxifen], the “area under dose-response curve” value in [1] is 582; in experiment [2], 664; in experiment [3], 598; in experiment [4], 636; in [5], 667; in [6] it was 584. Moreover, the “area under dose-response curve” value in experiment [7] was determined as 613; in [8], 629; in experiment [9], 575; in experiment [10] it was 634.
For `COc1cc2c(N3CCN(C(=O)Nc4ccc(OC(C)C)cc4)CC3)ncnc2cc1OCCCN1CCCCC1` [Tandutinib], the “area under dose-response curve” value in experiment [1] came to 623; in experiment [2], 729; in [3], 629; in experiment [4], 653; in experiment [5], 690; in [6], 388. Also, the “area under dose-response curve” value in experiment [7] was 672; in experiment [8] it was 319; in experiment [9], 647; in experiment [10], 705.
For the compound `C=CCNC1=C2C[C@@H](C)C[C@H](OC)[C@H](O)[C@@H](C)/C=C(\C)[C@H](OC(N)=O)[C@@H](OC)/C=C\C=C(/C)C(=O)NC(=CC1=O)C2=O` [Tanespimycin], the “area under dose-response curve” value in experiment [1] turned out to be 475; in experiment [2], 586; in experiment [3], 278; in experiment [4], 404; in [5] it was 535; in experiment [6], 327. The “area under dose-response curve” value in [7] is 480; in experiment [8] it was 280; in [9], 293; in experiment [10], 578.
Turning to `Cn1nnc2c(C(N)=O)ncn2c1=O` [Temozolomide], the “area under dose-response curve” value in [1] came out at 611; in experiment [2] it was 671; in experiment [3], 622; in experiment [4], 674; in [5] it was 688; in experiment [6], 624. The “area under dose-response curve” value was found to be 668 in experiment [7], 670 in [8], 597 in [9] and 656 in experiment [10].

These data come from the supplement of paper PMC5752671.
